Test results taken from US20130281465A1, “PYRAZOLE DERIVATIVE” (TAISHO PHARMACEUTICAL CO., LTD., priority 2010, published 2013).

Tests used:
[1] = molecular target: T1, human orexin type 1 receptor (hOX1R) (Homo sapiens, UniProt O43613); test: Orexin receptor antagonistic activity, intracellular Ca2+ fluorescence (FDSS) in CHO cells expressing hOX1R; assay type: cell-based; conditions: CHO cells forced to express hOX1R; orexin-A analogue peptide ligand 300 pM; Fluo-4 maximum fluorescence; read-out: IC50 value OX1R
T1 construct: expressed in transfected cells; host or cells: Chinese hamster ovary (CHO) cells
T1 sequence (O43613 1-425): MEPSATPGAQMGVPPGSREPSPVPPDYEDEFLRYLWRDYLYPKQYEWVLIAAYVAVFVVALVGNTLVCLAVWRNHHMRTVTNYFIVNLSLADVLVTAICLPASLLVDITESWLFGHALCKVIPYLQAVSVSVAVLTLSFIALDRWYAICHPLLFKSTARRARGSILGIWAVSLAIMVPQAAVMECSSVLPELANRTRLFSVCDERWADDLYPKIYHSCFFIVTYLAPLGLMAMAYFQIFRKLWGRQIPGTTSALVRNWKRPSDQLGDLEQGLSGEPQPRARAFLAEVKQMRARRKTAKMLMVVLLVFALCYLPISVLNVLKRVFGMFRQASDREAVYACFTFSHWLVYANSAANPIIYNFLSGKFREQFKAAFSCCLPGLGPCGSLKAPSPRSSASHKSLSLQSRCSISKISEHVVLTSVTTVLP
Description: (§1) The antagonistic activity of each test compound against human orexin type 1 receptor (hOX1R) and orexin type 2 receptor (hOX2R) was performed as described in the literature with a modification (Toshikatsu Okumura et al., Biochemical and Biophysical Research Communications 280, 976-981, 2001). Chinese hamster ovary (CHO) cells forced to express hOX1R or hOX2R were seeded at 20,000 cells/well on a 96 well Black clear bottom plates (Nunc) and cultured for 16 hours under conditions of 37° C. and 5% CO2 using a Ham's F-12 medium containing 0.1 mM MEM non-essential amino acids, 0.5 mg/ml G418, and 10% fetal bovine serum (all from Invitrogen Corp.). After removal of the medium, 100 μL of the assay buffer (25 mM HEPES (Dojindo Laboratories), Hanks' balanced salt solution (Invitrogen Corp.), 0.1% bovine serum albumin, 2.5 mM probenecid, 200 μg/ml Amaranth (all from Sigma-Aldrich Corp.), pH 7.4) containing 0.5 μM Fluo-4AM ester (Dojindo Laboratories) was added thereto, and the cells were incubated for 60 minutes under conditions of 37° C. and 5% CO2. After removal of the buffer solution for assay containing Fluo-4AM ester, the test compound was dissolved at a concentration of 10 mM in dimethyl sulfoxide and diluted with the assay buffer, and 150 μL of the diluted solution was then added to each wells, which were then incubated for 30 minutes.
(§2) A peptide (Pyr-[…]11e-Leu-Thr-Leu-NH2; Peptide Institute, Inc.) substituted 2 amino acids of human orexin-A was diluted with the assay buffer to 300 pM (final concentration for hOX1R) or 3 nM (final concentration for hOX2R). 50 μL of this ligand solution was added thereto to start reaction. During the reaction, the fluorescence value of each well was measured every one second for 3 minutes using Functional Drug Screening System (FDSS; manufactured by Hamamatsu Photonics K.K.), and antagonistic activity was determined with the maximum fluorescence value as an index for intracellular Ca^2+ concentration. The antagonistic activity of the test compound was calculated with the fluorescence value of a well supplemented with only a dilution buffer solution as 100% and the fluorescence value of a well supplemented with a buffer solution containing neither the ligand nor the compound as 0%, and determined in terms of 50% inhibitory concentration (IC50 value) from fluorescence values derived from the test compound added at varying concentrations.

[2] = molecular target: T2, orexin type 2 receptor (hOX2R) (Homo sapiens, UniProt O43614); test: Orexin receptor antagonistic activity, intracellular Ca2+ fluorescence (FDSS) in CHO cells expressing hOX2R; assay type: cell-based; conditions: CHO cells forced to express hOX2R; orexin-A analogue peptide ligand 3 nM; Fluo-4 maximum fluorescence; read-out: IC50 value OX2R
T2 construct: expressed in transfected cells; host or cells: Chinese hamster ovary (CHO) cells
T2 sequence (O43614 1-444): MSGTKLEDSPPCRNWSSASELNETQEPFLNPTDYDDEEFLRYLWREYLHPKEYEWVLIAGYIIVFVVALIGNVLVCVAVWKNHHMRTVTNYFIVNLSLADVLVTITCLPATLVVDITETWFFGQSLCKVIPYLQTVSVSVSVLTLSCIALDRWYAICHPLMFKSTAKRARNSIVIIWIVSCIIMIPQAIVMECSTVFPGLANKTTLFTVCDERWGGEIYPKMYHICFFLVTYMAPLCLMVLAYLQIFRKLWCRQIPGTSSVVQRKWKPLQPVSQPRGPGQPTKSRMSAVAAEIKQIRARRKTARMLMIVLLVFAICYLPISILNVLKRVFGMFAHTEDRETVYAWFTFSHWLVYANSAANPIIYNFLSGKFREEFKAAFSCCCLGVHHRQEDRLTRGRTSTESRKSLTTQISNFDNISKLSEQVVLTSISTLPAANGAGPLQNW
Description: as §1, §2

Row | IC50 [1] | IC50 [2] | SMILES
1 | 2 nM | 19.2 nM | CCN(CCn1ccc(-c2ccc(F)cc2)n1)C(=O)c1cc(F)ccc1-c1ncccn1 [Example 54, N-ethyl-5-fluoro-N-{2-[3-(4-fluorophenyl)-1H-pyrazol-1-yl]ethyl}-2-(pyrimidin-2-yl)benzamide]
2 | 1.8 nM | 3.5 nM | CCN(CCn1ccc(-c2ccc(F)cn2)n1)C(=O)c1cc(Cl)ccc1-c1ncccn1 [Example 43, N-ethyl-5-chloro-N-{2-[3-(5-fluoropyridin-2-yl)-1H-pyrazol-1-yl]ethyl}-2-(pyrimidin-2-yl)benzamide]
3 | 14.4 nM | 52.6 nM | CCN(CCn1cc(-c2ccc(Cl)cn2)cn1)C(=O)c1cc(C)ccc1-n1nccn1 [Example 10, N-{2-[4-(5-chloropyridin-2-yl)-1H-pyrazol-1-yl]ethyl}-N-ethyl-5-methyl-2-(2H-1,2,3-triazol-2-yl)benzamide]
4 | 1.5 nM | 7.8 nM | CCN(CCn1ccc(-c2ccc(F)c(F)c2)n1)C(=O)c1cc(F)ccc1-c1ncccn1 [Example 53, N-{2-[3-(3,4-difluorophenyl)-1H-pyrazol-1-yl]ethyl}-N-ethyl-5-fluoro-2-(pyrimidin-2-yl)benzamide]
5 | 22.9 nM | 99.5 nM | CCN(CCn1ccc(-c2cccc(C(F)(F)F)n2)n1)C(=O)c1cc(F)ccc1-c1ncccn1 [Example 57, N-ethyl-5-fluoro-2-(pyrimidin-2-yl)-N-(2-{3-[6-(trifluoromethyl)pyridin-2-yl]-1H-pyrazol-1-yl}ethyl)benzamide]
6 | 38.7 nM | 46.9 nM | CCN(CCn1ccc(-c2ccc(F)cn2)n1)C(=O)c1c(F)cccc1-n1nccn1 [Example 45, N-ethyl-2-fluoro-N-{2-[3-(5-fluoropyridin-2-yl)-1H-pyrazol-1-yl]ethyl}-6-(2H-1,2,3-triazol-2-yl)benzamide]
7 | 0.5 nM | 7.6 nM | CCN(CCn1ccc(-c2ccc(F)cn2)n1)C(=O)c1cc(F)ccc1-c1ncccn1 [Example 41, N-ethyl-5-fluoro-N-{2-[3-(5-fluoropyridin-2-yl)-1H-pyrazol-1-yl]ethyl}-2-(pyrimidin-2-yl)benzamide]
8 | 7.1 nM | 48.8 nM | CCN(CCn1ccc(-c2ccc(F)cn2)n1)C(=O)c1ccc(F)cc1-c1ncccn1 [Example 49, N-ethyl-4-fluoro-N-{2-[3-(5-fluoropyridin-2-yl)-1H-pyrazol-1-yl]ethyl}-2-(pyrimidin-2-yl)benzamide]
9 | 6 nM | 14.6 nM | CCN(CCn1cc(-c2ccc(F)cn2)cn1)C(=O)c1cc(C)ccc1-n1nccn1 [Example 4, N-ethyl-N-{2-[4-(5-fluoropyridin-2-yl)-1H-pyrazol-1-yl]ethyl}-5-methyl-2-(2H-1,2,3-triazol-2-yl)benzamide]
10 | 21.9 nM | 127 nM | CCN(CCn1ccc(-c2cc(C(F)(F)F)ccn2)n1)C(=O)c1cc(C)ccc1-n1nccn1 [Example 60, N-ethyl-5-methyl-2-(2H-1,2,3-triazol-2-yl)-N-(2-{3-[4-(trifluoromethyl)pyridin-2-yl]-1H-pyrazol-1-yl}ethyl)benzamide]
11 | 10.5 nM | 32.5 nM | Cc1ccc(-n2nccn2)c(C(=O)N(CCn2ccc(-c3ccc(F)cn3)n2)CC(F)F)c1 [Example 22, N-(2,2-difluoroethyl)-N-{2-[3-(5-fluoropyridin-2-yl)-1H-pyrazol-1-yl]ethyl}-5-methyl-2-(2H-1,2,3-triazol-2-yl)benzamide]
12 | 5.6 nM | 22.8 nM | Cc1ccc(-n2nccn2)c(C(=O)N(C)CCn2ccc(-c3ccc(F)cn3)n2)c1 [Example 17, N-{2-[3-(5-fluoropyridin-2-yl)-1H-pyrazol-1-yl]ethyl}-N,5-dimethyl-2-(2H-1,2,3-triazol-2-yl)benzamide]
